Source: patent US20230218707A1, “NOVEL PEPTIDE INHIBITORS OF BETA-LACTAMASE AGAINST ANTIBIOTIC RESISTANCE” (priority 2020, published 2023)
Residues, ends and D or L forms follow the SMILES beside them.

Assays:
[1] = tested on: NRS384; assay: Serial passage resistance selection of NRS384; assay type: cell-based, Staphylococcus aureus
[2] = tested on: MRSA strain (JE2); assay: Growth of MRSA strain JE2 with peptide and ceftizoxime; assay type: cell-based, Staphylococcus aureus; conditions: JE2, 8 μg/ml ceftizoxime (FIG. 4)
Procedure: Some of the MRSA strains also developed resistance against cephalosporin, which are improved β-lactams developed to overcome some of the early penicillin resistance. BP100-T61-25's synergy with Ceftizoxime, which is a third generation cephalosporin on a MRSA strain (JE2) that is resistant to cephalosporin, was tested.

[3] = tested on: Escherichia coli ATCC 35218; assay type: cell-based; conditions: for enhancement of amoxicillin killing of ATCC35218: 32 μg/ml amoxicillin, FIG. 1 / FIG. 2A
Procedure: The activity of peptide inhibitors was assessed in Escherichia coli ATCC 35218 strain, which is a TEM-1 producing control E. coli strain commonly used in testing β-lactamase inhibitor activity, and which is resistant to amoxicillin by expressing TEM-1 β-lactamase. Peptide inhibitors that can inhibit TEM-1 function will lower minimum inhibitory concentration (MIC) of the amoxicillin against the resistant bacteria, which will be used to measure the potency of peptide inhibitors in bacteria. Bacterial susceptibility to amoxicillin and β-lactamase inhibitors were determined by broth microtiter dilution (BMD) according to the Clinical and Laboratory Standards Institute (CLSI) methodology. The tests were done using checkboard method with different amoxicillin concentrations (0-128 μg/ml). For the control group, clavulanic acid concentration was about 4 μg/ml.

[4] = tested on: ATCC35218 cells; assay: Confocal microscopy of uptake of fluorescent labeled peptide; assay type: cell-based, E. coli; conditions: 5(6)-FAM label at N-terminus
Procedure: To confirm that the CPP enhanced the E. coli uptake of the peptide, the BP100-T61-25 peptide was labeled with 5(6)-FAM [5-(and-6)-Carboxyfluorescein at the N-terminus and incubated with ATCC35218 cells. […] It is noted that significant enhancement of amoxicillin potency against resistant bacteria can be achieved by linking CPPs to peptide inhibitor.

[5] = tested on: MRSA strain NRS384; assay: Growth of MRSA strain NRS384 with peptide and amoxicillin; assay type: cell-based, Staphylococcus aureus
Procedure: In order to assess the potency of the peptides against MRSA, the peptides were tested on MRSA strain NRS384, which is widely used for studying MRSA infections.

[6] = biological target: T1, PBP2a (Staphylococcus aureus, UniProt P07944); assay: In vitro binding assay, Bocillin FL binding to PBP2a (SDS-PAGE fluorescence); conditions: preliminary data, FIG. 3A
T1 construct: purchased RayBiotech, GA
T1 sequence (P07944 whole entry): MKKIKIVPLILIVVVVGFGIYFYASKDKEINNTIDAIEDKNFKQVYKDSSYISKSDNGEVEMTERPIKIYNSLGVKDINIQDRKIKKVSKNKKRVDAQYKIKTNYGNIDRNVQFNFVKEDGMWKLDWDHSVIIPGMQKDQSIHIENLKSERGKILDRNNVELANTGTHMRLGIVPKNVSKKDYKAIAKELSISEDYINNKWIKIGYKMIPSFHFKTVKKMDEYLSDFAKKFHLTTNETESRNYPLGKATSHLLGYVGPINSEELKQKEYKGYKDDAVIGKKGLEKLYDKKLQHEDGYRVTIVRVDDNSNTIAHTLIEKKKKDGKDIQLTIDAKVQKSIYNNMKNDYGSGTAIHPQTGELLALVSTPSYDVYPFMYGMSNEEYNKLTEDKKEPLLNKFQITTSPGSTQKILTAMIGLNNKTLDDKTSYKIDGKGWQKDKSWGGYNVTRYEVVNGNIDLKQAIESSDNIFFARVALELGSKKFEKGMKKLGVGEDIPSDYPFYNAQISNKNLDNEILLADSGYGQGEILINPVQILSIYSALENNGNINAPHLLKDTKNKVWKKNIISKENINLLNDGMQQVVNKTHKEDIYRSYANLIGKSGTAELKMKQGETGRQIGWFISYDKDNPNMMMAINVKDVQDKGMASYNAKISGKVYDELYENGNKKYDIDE
Source text: More peptides were designed to target both PBP2a and β-lactamase which are predicted to enhance amoxicillin killing of MRSA. […] The top 6 best-scored peptides were synthesized. […] In the absence of peptide competitors, Bocillin FL bound to PBP2a and then gave rise to fluorescence signal when the protein was resolved on an SDS-PAGE gel.

[7] = biological target: TEM-1 (Escherichia coli, UniProt P62593); conditions: literature peptide, Huang et al. 2003; cited from earlier work
Chain of TEM-1 (P62593 24-286 limits assumed): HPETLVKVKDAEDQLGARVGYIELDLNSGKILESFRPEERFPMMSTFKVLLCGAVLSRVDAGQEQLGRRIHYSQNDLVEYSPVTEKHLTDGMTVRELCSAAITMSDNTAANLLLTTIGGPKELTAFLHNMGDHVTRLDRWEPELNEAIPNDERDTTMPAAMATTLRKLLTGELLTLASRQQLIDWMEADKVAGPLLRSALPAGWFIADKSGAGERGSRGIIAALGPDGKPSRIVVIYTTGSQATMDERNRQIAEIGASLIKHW

CC[C@H](C)[C@H](NC(=O)[C@H](CCCCN)NC(=O)[C@H](CCCCN)NC(=O)[C@H](Cc1ccccc1)NC(=O)[C@H](CC(C)C)NC(=O)[C@H](CCCCN)NC(=O)[C@@H](N)CCCCN)C(=O)N[C@@H](CC(C)C)C(=O)N[C@@H](CCCCN)C(=O)N[C@@H](Cc1ccc(O)cc1)C(=O)N[C@@H](CC(C)C)C(=O)N[C@@H](CCCCN)C(=O)N[C@H](C(=O)N[C@@H](Cc1ccc(O)cc1)C(=O)N[C@@H](CC(C)C)C(=O)N[C@@H](C)C(=O)N[C@@H](CCC(N)=O)C(=O)N[C@@H](C)C(=O)N[C@@H](C)C(=O)N[C@@H](C)C(=O)N[C@H](C(=O)NCC(=O)O)[C@@H](C)O)[C@@H](C)O [BP100-T61-25] (H-KKLFKKILKYLKTYLAQAAATG-OH; N-terminus and C-terminus assumed)
peptide concentration sufficient to inhibit bacterial growth after serial passage ([1]; NRS384 passages 12-15, with 32 μg/ml amoxicillin): 16 µg/mL | peptide concentration significantly enhancing ceftizoxime's killing of JE2 [2]: 8 µg/mL | enhancement of amoxicillin killing of ATCC35218 [3]: Marked enhancement of amoxicillin (32 μg/ml) killing of bacteria | peptide dose close to the MIC ([3]; ATCC 35218): ~8 µg/mL | peptide concentration with strong inhibition of bacterial growth ([3]; ATCC35218, with 32 μg/ml amoxicillin): 8 to 16 µg/mL | peptide concentration significantly inhibiting bacterial growth ([3]; ATCC35218, without amoxicillin): 16 µg/mL | peptide internalization into E. coli cells [4]: peptide internalization into E. coli cells was observed | peptide concentration enhancing amoxicillin killing of MRSA ([5]; NRS384, amoxicillin 32 μg/ml, FIG. 3C): 16 µg/mL

CC(C)C[C@H](NC(=O)[C@H](Cc1ccc(O)cc1)NC(=O)[C@@H](NC(=O)[C@@H](N)CCCCN)[C@@H](C)O)C(=O)N[C@@H](C)C(=O)N[C@@H](CCC(N)=O)C(=O)N[C@@H](C)C(=O)N[C@@H](C)C(=O)N[C@@H](C)C(=O)N[C@H](C(=O)NCC(=O)O)[C@@H](C)O [Peptide T61-25]
inhibition of Bocillin FL binding to PBP2a [6]: inhibitory effect

CC(C)C[C@H](NC(=O)[C@H](C)NC(=O)[C@H](CCCNC(=N)N)NC(=O)[C@@H](NC(=O)[C@@H](NC(=O)[C@H](Cc1ccccc1)NC(=O)[C@@H](NC(=O)[C@@H](N)CCCCN)[C@@H](C)O)C(C)C)C(C)C)C(=O)N[C@@H](C)C(=O)N[C@@H](CO)C(=O)O [Peptide T63-07]
inhibition of Bocillin FL binding to PBP2a [6]: inhibitory effect

C[C@H](NC(=O)[C@H](Cc1ccccc1)NC(=O)[C@H](CC(=O)O)NC(=O)CNC(=O)[C@H](CO)NC(=O)CNC(=O)CN)C(=O)N[C@@H](CCCNC(=N)N)C(=O)N[C@@H](CO)C(=O)N[C@@H](CO)C(=O)N[C@@H](Cc1ccc(O)cc1)C(=O)O [Peptide T66-12]
inhibition of Bocillin FL binding to PBP2a [6]: inhibitory effect

CC1(C)S[C@@H]2[C@H](NC(=O)[C@H](N)c3ccc(O)cc3)C(=O)N2[C@H]1C(=O)O [amoxicillin, reference compound]
MIC ([5]; Staphylococcus aureus): > 256 µg/mL

O=C(O)c1cn(C2CC2)c2cc(N3CCNCC3)c(F)cc2c1=O [ciprofloxacin, reference compound]
MIC ([1]; Staphylococcus aureus, NRS384, read-out: bacterial MIC to ciprofloxacin after serial passage): > 256 µg/mL

CFFKDELKTYLAQAAATG [Peptide T63-2, cell wall-permeating peptide attached to peptide T61-25]
enhancement of amoxicillin killing of ATCC35218 [3]: moderate effect at enhancing amoxicillin potency

KFFKFFKFFKKTYLAQAAATG [Peptide T63-1, cell wall-permeating peptide attached to peptide T61-25]
enhancement of amoxicillin killing of ATCC35218 [3]: Significant enhancement of amoxicillin killing of bacteria | enhancement of amoxicillin potency compared with clavulanate ([3]; ATCC35218, FIG. 1): enhanced amoxicillin potency significantly more than clavulanate

KTFVVRALASCKFFKFFKFF [Peptide T63-07-CPP, T63-07 conjugated with CPP]
peptide concentration significantly enhancing amoxicillin inhibition of MRSA growth ([5]; NRS384, amoxicillin 32 and 64 μg/ml, FIG. 3B): 32 µg/mL

RRGHYY-NH2
Ki [7]: 136 µM
